Columns and labels:
human GPR84 receptor = target: T1, human GPR84 receptor (Homo sapiens, UniProt Q9NQS5); experiment: Gαi biosensor BRET assay in HEK293 cells (antagonism of ZQ-16); format: cell-based; details: for inhibition at 10 µM: HEK293, single concentration 10 μM (designated F); for IC50: HEK293 cells, antagonism of 200 nmol/L ZQ-16
T1 construct: host or cells: HEK293, transient transfection
Summary of the method: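 HEK293 cells transiently expressing human GPR84, Gαi2-Rluc8, GFP10-Gγ2 and Gβ1, in Tyrode's buffer pH 7.5. Compounds preincubated 5 min at 37° C, then 200 nmol/L ZQ-16 for 5 min at room temperature; coelenterazine 400A 5 μmol/L. BRET2 acceptor/donor ratio, background- and vehicle-corrected net BRET.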

neutrophils = experiment: Neutrophil migration assay (embelin as chemotactic agent, ATPlite readout); format: cell-based; details: for IC50: Neutrophil, human neutrophils, embelin as chemotactic agent, read-out: Human Neutrophil migration inhibition IC50; for Human Neutrophil migration inhibition - fold potency to Control Compound: normalized to GPR84 antagonist Control Compound (average IC50 131 nM)
Protocol: Neutrophil migration assay. After isolation, neutrophils were resuspended in chemotaxis buffer (DMEM supplemented with 10 mM HEPES) at a concentration of 8.9×10^6 cells/ml. In a 96-well plate, 20 μl of compound solution in chemotaxis buffer is added to 180 μl of cell suspension. After incubation at 37° C. for 30 minutes, 75 μl of cell suspension is transferred in the upper chamber of a 5 μm pore size Corning HTS transwell. 235 μl of chemotaxis buffer containing the chemotactic agent (embelin) is added to the lower chamber of the transwell. After a 60-minute incubation time at 37° C. in 5%0 C02, the upper chamber of the transwell is removed and the plate is centrifuged at 1500 rpm for 6 minutes. Supermatant is removed and cells resuspended in 100 ul of PBS. ATP content was assessed using ATPlite Luminescence Assay System® according to manufacturer instructions (Perkin Elmer, Buckinghamshire, UK). Briefly, 50 μl of ATPlite buffer and 50 μl of lysis solution is added to the lower chamber of the Transwells. After incubation at room temperature, in the dark with constant agitation for 5 minutes, 150 μl of cell lysate is transferred in a 96 wells white plate and incubated for 10 minutes in the dark. Luminescence is read on a TECAN plate reader, Infinite M1000 (Tecan, Morrisville, NC).
The compound numbers correspond to the compound numbers in Table 1. […] Normalization of the results takes the donor's variation into account.

T1 sequence (Q9NQS5 whole entry): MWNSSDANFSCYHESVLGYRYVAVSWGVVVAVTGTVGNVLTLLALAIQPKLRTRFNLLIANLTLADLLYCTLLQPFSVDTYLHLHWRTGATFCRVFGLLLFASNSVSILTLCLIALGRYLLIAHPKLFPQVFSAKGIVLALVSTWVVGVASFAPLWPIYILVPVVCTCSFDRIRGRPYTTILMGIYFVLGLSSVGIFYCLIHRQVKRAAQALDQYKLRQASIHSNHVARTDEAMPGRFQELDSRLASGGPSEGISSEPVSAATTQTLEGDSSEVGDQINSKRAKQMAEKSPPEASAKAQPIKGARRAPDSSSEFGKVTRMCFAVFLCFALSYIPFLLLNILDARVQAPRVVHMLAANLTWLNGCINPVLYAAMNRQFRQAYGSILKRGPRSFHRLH

Row | Compound | inhibition at 10 µM (human GPR84 receptor) | IC50 (human GPR84 receptor) | IC50 (neutrophils) | inhibition at 25 µM (human GPR84 receptor; HEK293, single concentration 25 μM (designated I)) | inhibition at 2 µM (human GPR84 receptor; HEK293, single concentration 2 μM (designated A)) | inhibition at 6 µM (human GPR84 receptor; HEK293, single concentration 6.00 μM (designated D°)) | Human Neutrophil migration inhibition - fold potency to Control Compound (neutrophils)
1 | Cc1cc(C#CCN2CC(C)(C)C2)ccc1-c1cn(CC2CCCCO2)nn1 (centres unmarked) [Compound I-119] | – | 1000 to 3000 nM | 300 to 1000 nM | – | – | – | C (IC50≤0.5-fold relative to Control Compound)
2 | CC(C)c1cc(C#CC2CC2)ccc1-c1cn(CC2CCCCO2)nn1 (centres unmarked) [Compound I-88] | – | 1000 to 3000 nM | 1000 to 3000 nM | – | – | – | C (IC50≤0.5-fold relative to Control Compound)
3 | Cc1ccc(C#CC2CC2)cc1-c1nnn(CC2CCCCO2)n1 (centres unmarked) [Compound I-7] | – | > 3000 nM | > 3000 nM | > 75% | – | – | C (IC50≤0.5-fold relative to Control Compound)
4 | CC(C)Oc1cc(C#CC2CC2)ccc1-c1cn(CC2CCCCO2)nn1 (centres unmarked) [Compound I-187] | – | > 3000 nM | ≤ 300 nM | – | – | – | B (IC50 of >0.5-≤1.0-fold relative to Control Compound)
5 | Cc1ccc(C#CC2CC2)cc1-n1nc(CC2CCCCO2)oc1=O (centres unmarked) [Compound I-14] | > 75% | 1000 to 3000 nM | ≤ 300 nM | – | – | – | A (IC50 of >1.0-fold relative to Control Compound)
6 | Cc1cc(C#CC(C)(C)C)ccc1-c1cn(CC2CCCCO2)nn1 (centres unmarked) [Compound I-67] | – | 1000 to 3000 nM | 300 to 1000 nM | – | – | – | B (IC50 of >0.5-≤1.0-fold relative to Control Compound)
7 | Cc1cc(C#CCN(C)CC2(C(F)(F)F)CC2)ccc1-c1cn(CC2CCCCO2)nn1 (centres unmarked) [Compound I-138] | 50 to 75% | 1000 to 3000 nM | 1000 to 3000 nM | – | – | – | C (IC50≤0.5-fold relative to Control Compound)

The next lines start with results.

Row | inhibition at 10 µM (human GPR84 receptor) | IC50 (human GPR84 receptor) | IC50 (neutrophils) | inhibition at 25 µM (human GPR84 receptor; HEK293, single concentration 25 μM (designated I)) | inhibition at 2 µM (human GPR84 receptor; HEK293, single concentration 2 μM (designated A)) | inhibition at 6 µM (human GPR84 receptor; HEK293, single concentration 6.00 μM (designated D°)) | Compound | Human Neutrophil migration inhibition - fold potency to Control Compound (neutrophils)
8 | > 75% | 300 to 1000 nM | ≤ 300 nM | – | – | – | Cc1cc(N2CCN([C@@H](C)c3ccccn3)CC2)ccc1-c1cn(C[C@H]2CCCCO2)nn1 [Compound I-612] | A (IC50 of >1.0-fold relative to Control Compound)
9 | > 75% | ≤ 300 nM | ≤ 300 nM | – | – | – | CCc1cc(C#CCO)ccc1-c1cn(CC2OCC(C)(C)CO2)nn1 [Compound I-620] | A (IC50 of >1.0-fold relative to Control Compound)
10 | > 75% | 300 to 1000 nM | 300 to 1000 nM | – | – | – | Cc1cc(C#CCN(C)CC2CC2)ccc1-c1cn(CC2CCCCO2)nn1 (centres unmarked) [Compound I-121] | C (IC50≤0.5-fold relative to Control Compound)
11 | > 75% | ≤ 300 nM | ≤ 300 nM | – | – | – | Cc1cc(C#CCN2CC(C)(C)C2)ccc1-c1cn(CC2OCC(C)(C)CO2)nn1 [Compound I-634] | A (IC50 of >1.0-fold relative to Control Compound)
12 | > 75% | ≤ 300 nM | ≤ 300 nM | – | – | – | Cc1cc(N2CCN(Cc3ccccn3)CC2)ccc1-c1cn(CC2OCC(C)(C)CO2)nn1 [Compound I-531] | A (IC50 of >1.0-fold relative to Control Compound)
13 | – | 300 to 1000 nM | ≤ 300 nM | – | > 75% | – | COC(c1cn(CC2CCCCO2)nn1)c1cc(C#CC2CC2)ccc1C (centres unmarked) [Compound I-417] | A (IC50 of >1.0-fold relative to Control Compound)
14 | 25 to 50% | 300 to 1000 nM | ≤ 300 nM | – | – | – | Cc1cc(N2CC(C)(N(C)Cc3ccccc3)C2)ccc1-c1cn(CC2CCCCO2)nn1 (centres unmarked) [Compound I-553] | B (IC50 of >0.5-≤1.0-fold relative to Control Compound)
15 | – | 300 to 1000 nM | ≤ 300 nM | – | – | > 75% | Cc1cc(N2CCN(Cc3ccccn3)CC2)ccc1-c1cn(C[C@H]2CCCCO2)nn1 [Compound I-423] | A (IC50 of >1.0-fold relative to Control Compound)

From patent publication US12617777B2, “GPR84 antagonists and uses thereof” (Liminal BioSciences Limited, priority 2021, dated 2026)
